Measured values: patent US12319672B2, “Alpha-D-galactopyranoside derivatives” (Idorsia Pharmaceuticals Ltd, priority 2019, dated 2025)

Legend:
[1] = biological target: human Gal-1 (hGal-1); test: Competitive binding assay: binding of biotinylated hGal-1 to microplate-adsorbed asialofetuin (ASF); conditions: Activities on hGal-1; mean values of several measurements
In short: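 For hGal-1, a variant with all six cysteines replaced by serines is preferred. Either galectin, biotinylated at 300-1000 ng/mL, competes with compound for microplate-bound ASF over 3 h at 4° C; peroxidase/ABTS detection gives IC50, averaged.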

[2] = biological target: human Gal-3 (hGal-3) (Homo sapiens (Human), UniProt P17931); test: Competitive binding assay: binding of biotinylated hGal-3 to microplate-adsorbed asialofetuin (ASF); conditions: Activity on hGal-3; mean values of several measurements
Chain of human Gal-3 (hGal-3) (P17931 whole entry): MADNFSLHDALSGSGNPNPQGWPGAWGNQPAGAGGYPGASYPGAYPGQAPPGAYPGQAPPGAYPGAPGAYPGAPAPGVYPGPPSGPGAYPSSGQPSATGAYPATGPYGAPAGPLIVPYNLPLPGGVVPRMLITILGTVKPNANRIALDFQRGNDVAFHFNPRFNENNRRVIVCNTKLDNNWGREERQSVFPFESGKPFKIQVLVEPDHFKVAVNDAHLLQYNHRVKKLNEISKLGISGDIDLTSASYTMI
In short: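 Compounds in DMSO dilution series competed with 300-1000 ng/mL biotinylated hGal-3 for asialofetuin adsorbed on the plate (3 h, 4° C). Streptavidin-peroxidase at 80 ng/mL (1 h, 4° C) with ABTS gave a spectrophotometric read-out, and IC50 was reported as the mean of repeat runs.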

Chain of human Gal-1 (hGal-1) (P09382 2-135 limits assumed): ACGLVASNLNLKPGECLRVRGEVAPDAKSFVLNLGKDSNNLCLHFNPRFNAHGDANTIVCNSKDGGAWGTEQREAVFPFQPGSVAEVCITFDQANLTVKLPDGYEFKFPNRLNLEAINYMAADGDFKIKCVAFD

Row | Compound | IC50 [1] [nM] | IC50 [2] [nM]
1 | CO[C@@H]1[C@@H](n2cc(-c3ccc(F)c(F)c3F)nn2)[C@@H](O)[C@@H](CO)O[C@@H]1Cc1cc(C2CCN(C(C)=O)CC2)on1 [Ex 1.166] | 260 | 26
2 | CO[C@@H]1[C@@H](n2cc(-c3cc(F)cc(Cl)c3)nn2)[C@@H](O)[C@@H](CO)O[C@@H]1Cc1cc(C2CCN(C(C)=O)CC2)on1 [Ex 1.169] | 470 | 154
3 | CO[C@@H]1[C@@H](n2cc(-c3cc(F)c(F)c(F)c3)nn2)[C@@H](O)[C@@H](CO)O[C@@H]1C[C@H]1CC(c2cc[nH]c(=O)c2)=NO1 [Example 2.07b, 4-((R)-5-(((2R,3R,4S,5R,6R)-5-hydroxy-6-(hydroxymethyl)-3-methoxy-4-(4-(3,4,5-trifluorophenyl)-1H-1,2,3-triazol-1-yl)tetrahydro-2H-pyran-2-yl)methyl)-4,5-dihydroisoxazol-3-yl)pyridin-2(1H)-one] | 11700 | 1700
4 | CO[C@@H]1[C@@H](n2cc(-c3cc(F)c(F)c(F)c3)nn2)[C@@H](O)[C@@H](CO)O[C@@H]1Cc1cc(C2CCN(C(=O)OC(C)(C)C)C2)on1 (some centres unmarked) [Ex 1.70] | 12600 | 1980
5 | CO[C@@H]1[C@@H](n2cc(-c3ccc(C)c(F)c3F)nn2)[C@@H](O)[C@@H](CO)O[C@@H]1Cc1cc(C(C)(C)CNC(=O)OC(C)(C)C)no1 [Ex 1.331] | 1990 | 58
6 | CO[C@@H]1[C@@H](n2cc(-c3ccc(C)c(F)c3F)nn2)[C@@H](O)[C@@H](CO)O[C@@H]1Cc1cc(C(C)(C)C)on1 [Ex 1.195] | 3330 | 60
7 | CO[C@@H]1[C@@H](n2cc(-c3ccc(F)c(F)c3F)nn2)[C@@H](O)[C@@H](CO)O[C@@H]1Cc1cc(C(C)(C)CO)no1 [Ex 1.253] | 280 | 58
8 | OC[C@H]1O[C@H](Cc2cc(C3CCC4(CC3)OCCO4)on2)[C@H](O)[C@@H](n2cc(-c3cc(F)c(F)c(F)c3)nn2)[C@H]1O [Ex 1.77] | 6820 | 710
9 | CO[C@@H]1[C@@H](n2cc(-c3cc(F)c(F)c(F)c3)nn2)[C@@H](O)[C@@H](CO)O[C@@H]1Cc1cc(C2(C#N)CCCC2)no1 [Ex 1.290] | 2120 | 270
10 | CO[C@@H]1[C@@H](n2cc(-c3ccc(C)c(F)c3F)nn2)[C@@H](O)[C@@H](CO)O[C@@H]1Cc1cc(C2(O)CCCCC2)on1 [Ex 1.238] | 3740 | 45
11 | CO[C@@H]1[C@@H](n2cc(-c3ccc(F)c(F)c3F)nn2)[C@@H](O)[C@@H](CO)O[C@@H]1Cc1cc(C2CCN(S(C)(=O)=O)CC2)on1 [Ex 1.157] | 94 | 30
12 | CO[C@@H]1[C@@H](n2cc(-c3ccc(F)c(F)c3F)nn2)[C@@H](O)[C@@H](CO)O[C@@H]1Cc1cc(C(C)(C)O)on1 [Ex 1.232] | 970 | 100
13 | Cc1ncsc1C1CC(C[C@H]2O[C@H](CO)[C@H](O)[C@H](n3cc(-c4cc(F)c(F)c(F)c4)nn3)[C@H]2O)=NO1 (some centres unmarked) [Ex 1.37] | 7700 | 440
14 | CO[C@@H]1[C@@H](n2cc(-c3ccc(Cl)c(F)c3F)nn2)[C@@H](O)[C@@H](CO)O[C@@H]1Cc1cc(C2CCCCC2)on1 [Ex 1.172] | 57000 | 260
15 | CC(C)(C)OC(=O)N1CCC(c2cc(C[C@H]3O[C@H](CO)[C@H](O)[C@H](n4cc(-c5cc(F)c(F)c(F)c5)nn4)[C@H]3OCC(=O)O)no2)CC1 [Example 2.21, 2-(((2R,3R,4S,5R,6R)-2-((5-(1-(tert-butoxycarbonyl)piperidin-4-yl)isoxazol-3-yl)methyl)-5-hydroxy-6-(hydroxymethyl)-4-(4-(3,4,5-trifluorophenyl)-1H-1,2,3-triazol-1-yl)tetrahydro-2H-pyran-3-yl)oxy)acetic acid] | 690 | 22
16 | OC[C@H]1O[C@H](C[C@@H]2CC(C3CCCCC3)=NO2)[C@H](O)[C@@H](n2cc(-c3cc(F)c(F)c(F)c3)nn2)[C@H]1O [Ex 1.07] | 4900 | 520
17 | CO[C@@H]1[C@@H](n2cc(-c3ccc(Cl)c(F)c3F)nn2)[C@@H](O)[C@@H](CO)O[C@@H]1Cc1cc(C2(C)CCCC2)on1 [Ex 1.275] | 3300 | 110
18 | CO[C@@H]1[C@@H](n2cc(-c3ccc(F)c(F)c3F)nn2)[C@@H](O)[C@@H](CO)O[C@@H]1Cc1cc(C2(C)CCCC2)on1 [Ex 1.273] | 720 | 66

The remaining lines, values ahead:

Row | IC50 [1] [nM] | IC50 [2] [nM] | Compound
19 | 4900 | 210 | CO[C@@H]1[C@@H](n2cc(-c3cc(F)c(F)c(F)c3)nn2)[C@@H](O)[C@@H](CO)O[C@@H]1Cc1cn(C2CC[S+]([O-])CC2)nn1 (stereo partly drawn) [Example 4.15, 4-(4-(((2R,3R,4S,5R,6R)-5-hydroxy-6-(hydroxymethyl)-3-methoxy-4-(4-(3,4,5-trifluorophenyl)-1H-1,2,3-triazol-1-yl)tetrahydro-2H-pyran-2-yl)methyl)-1H-1,2,3-triazol-1-yl)tetrahydro-2H-thiopyran 1-oxide]
20 | 1990 | 190 | CNC(=O)CO[C@@H]1[C@@H](n2cc(-c3cc(F)c(F)c(F)c3)nn2)[C@@H](O)[C@@H](CO)O[C@@H]1Cc1cc(C(C)(C)C)on1 [Example 2.38, 2-(((2R,3R,4S,5R,6R)-2-((5-(tert-butyl)isoxazol-3-yl)methyl)-5-hydroxy-6-(hydroxymethyl)-4-(4-(3,4,5-trifluorophenyl)-1H-1,2,3-triazol-1-yl)tetrahydro-2H-pyran-3-yl)oxy)-N-methylacetamide]
21 | 6380 | 560 | CO[C@@H]1[C@@H](n2cc(-c3cc(F)c(F)c(F)c3)nn2)[C@@H](O)[C@@H](CO)O[C@@H]1Cc1cc(C2CCC(F)(F)CC2)sn1 [Example 6.01, (2R,3R,4S,5R,6R)-6-((5-(4,4-difluorocyclohexyl)isothiazol-3-yl)methyl)-2-(hydroxymethyl)-5-methoxy-4-(4-(3,4,5-trifluorophenyl)-1H-1,2,3-triazol-1-yl)tetrahydro-2H-pyran-3-ol]
22 | 9190 | 340 | CC(=O)O[C@@H]1[C@@H](n2cc(-c3cc(F)c(F)c(F)c3)nn2)[C@@H](O)[C@@H](CO)O[C@@H]1CC1=NO[C@@H](C2CCN(C(C)=O)CC2)C1 [Example 3.24, (2R,3R,4S,5R,6R)-2-(((R)-5-(1-acetylpiperidin-4-yl)-4,5-dihydroisoxazol-3-yl)methyl)-5-hydroxy-6-(hydroxymethyl)-4-(4-(3,4,5-trifluorophenyl)-1H-1,2,3-triazol-1-yl)tetrahydro-2H-pyran-3-yl acetate]
23 | 1740 | 71 | CC(C)(C)c1cc(C[C@H]2O[C@H](CO)[C@H](O)[C@H](n3cc(-c4cc(F)c(F)c(F)c4)nn3)[C@H]2OCC(=O)O)on1 [Example 2.37, 2-(((2R,3R,4S,5R,6R)-2-((3-(tert-butyl)isoxazol-5-yl)methyl)-5-hydroxy-6-(hydroxymethyl)-4-(4-(3,4,5-trifluorophenyl)-1H-1,2,3-triazol-1-yl)tetrahydro-2H-pyran-3-yl)oxy)acetic acid]
24 | 73 | 22 | CO[C@@H]1[C@@H](n2cc(-c3cc(F)c(F)c(F)c3)nn2)[C@@H](O)[C@@H](CO)O[C@@H]1CN1CC(=O)N(C2CCN(C(C)=O)CC2)C1 [Example 6.08, 3-(1-acetylpiperidin-4-yl)-1-(((2R,3R,4S,5R,6R)-5-hydroxy-6-(hydroxymethyl)-3-methoxy-4-(4-(3,4,5-trifluorophenyl)-1H-1,2,3-triazol-1-yl)tetrahydro-2H-pyran-2-yl)methyl)imidazolidin-4-one]
25 | 1000 | 34 | CO[C@@H]1[C@@H](n2cc(-c3cc(F)c(F)c(F)c3)nn2)[C@@H](O)[C@@H](CO)O[C@@H]1Cc1cn(C2CCN([S+]([O-])C(C)(C)C)CC2)nn1 (stereo partly drawn) [Example 4.19, (2R,3R,4S,5R,6R)-6-((1-(1-(RS-tert-butylsulfinyl)piperidin-4-yl)-1H-1,2,3-triazol-4-yl)methyl)-2-(hydroxymethyl)-5-methoxy-4-(4-(3,4,5-trifluorophenyl)-1H-1,2,3-triazol-1-yl)tetrahydro-2H-pyran-3-ol]
26 | 320 | 27 | CO[C@@H]1[C@@H](n2cc(-c3cc(F)c(F)c(F)c3)nn2)[C@@H](O)[C@@H](CO)O[C@@H]1Cc1cn(C2CCS(=O)(=NC(C)C)CC2)nn1 (stereo partly drawn) [Example 4.31, 4-(4-(((2R,3R,4S,5R,6R)-5-hydroxy-6-(hydroxymethyl)-3-methoxy-4-(4-(3,4,5-trifluorophenyl)-1H-1,2,3-triazol-1-yl)tetrahydro-2H-pyran-2-yl)methyl)-1H-1,2,3-triazol-1-yl)-1-(isopropylimino)hexahydro-1l6-thiopyran 1-oxide]
27 | 610 | 20 | CO[C@@H]1[C@@H](n2cc(-c3cc(F)c(F)c(F)c3)nn2)[C@@H](O)[C@@H](CO)O[C@@H]1Cc1cc(C2CCN(S(=N)(=O)C(C)(C)C)CC2)on1 (mixture of isomers) [Example 3.56, (RS)-(2R,3R,4S,5R,6R)-2-(hydroxymethyl)-5-methoxy-6-((5-(1-(2-methylpropan-2-ylsulfonimidoyl)piperidin-4-yl)isoxazol-3-yl)methyl)-4-(4-(3,4,5-trifluorophenyl)-1H-1,2,3-triazol-1-yl)tetrahydro-2H-pyran-3-ol]
28 | 4290 | 330 | CO[C@@H]1[C@@H](n2cc(-c3cc(F)c(F)c(F)c3)nn2)[C@@H](O)[C@@H](CO)O[C@@H]1Cn1cc(C2(C#N)CCCC2)nn1 [Example 4.50, 1-(1-(((2R,3R,4S,5R,6R)-5-hydroxy-6-(hydroxymethyl)-3-methoxy-4-(4-(3,4,5-trifluorophenyl)-1H-1,2,3-triazol-1-yl)tetrahydro-2H-pyran-2-yl)methyl)-1H-1,2,3-triazol-4-yl)cyclopentane-1-carbonitrile]
